{"source": "patent US11214806B2", "about": "“Marker, method and kit for observing effect of compound or drug on cells in real time, and use thereof” (priority 2016, dated 2022)", "key": {"[1]": {"tested_on": "VirE2 trafficking in N. benthamiana (Nb308A) leaf epidermal cells", "assay": "Real-time VirE2-GFPcomp trafficking in agroinfiltrated tobacco leaf epidermal cells (split-GFP, confocal microscopy)", "assay_type": "cell-based", "conditions": "for effect on real-time movement process of protein VirE2-GFP / toxicity as judged from VirE2-GFP movement: drug infiltrated into leaf six hours before observation, FIG. 11; for effect on VirE2 trafficking: infiltrated 6 h before observation, control 0.5% DMSO, FIG. 1b-d", "method": "To visualize Agrobacterium-delivered VirE2, agroinfiltration was performed as described previously. Briefly, the bacteria were grown overnight; the cultures were diluted 50 times in MG/L and grown for 6 h. The bacteria were collected and re-suspended in infiltration buffer (10 mM MgCl2, 10 mM MES, pH5.5) to OD600=1.0. The bacterial suspension was infiltrated using a syringe to the underside of fully expended N. benthamiana leaves. The infiltrated plant was placed at 22° C. in a photoperiod of 16 h light/8 h dark. In order to observe a real-time effect of a compound or a drug on cells in real time, the inventor injected and infiltrated the compound or the drug into a leaf injected and infiltrated with A. tumefaciens EHA105virE2::GFP11 cell at an appropriate concentration, and observed with a UPLSAPO×60 N.A. 1.20 water immersion lens under a confocal microscope after six hours.\nA PerkinElmer UltraView Vox Spinning Disk system with EM-CCD cameras was used for confocal microscopy. To observe leaf epidermis, agroinfiltrated leaf tissues were detached from N. benthamiana plants and put in 2% low-melting agarose gel on a glass slide with a coverslip. All images were taken in multiple focal planes (Z-stacks), and were processed to show the extended focus image or 3D opacity view by Volocity® 3D Image Analysis Software 6.2.1.\nFIG. 1 illustrated Agrobacterium-delivered VirE2 trafficking on a cellular structure and entering the nucleus. A. tumefaciens EHA105virE2::GFP11 cells were infiltrated into transgenic N. benthamiana (Nb308A) leaves expressing both GFP1-10 and DsRed. […] Red, free DsRed; Green, VirE2-GFPcomp. (a) Time-lapse images of VirE2 aggregates trafficking along a linear cellular structure and entering the nucleus. Relative time is shown at the top right. Scale bar represents 20 μm. (b) Effects of chemical treatments on VirE2 trafficking. Chemicals were infiltrated into leaf samples 6 h before observation. Control, 0.5% DMSO. Colc, colchicine […] CytoD, cytochalasin D 20 μM. BFA, brefeldin A 100 μg/mL. Scale bar represents 20 μm. (c) Mean velocities of VirE2 aggregate movement after chemical treatments. Data analyzed with ANOVA and Tukey test, p<0.05. (d) Movement tracking of 20 individual VirE2 aggregates plotted to a common origin for each treatment.\nFIG. 4 illustrated effects of ML-7 and myosin-tail overexpression on VirE2 trafficking. (a) Effect of ML-7, a myosin light chain kinase inhibitor, on VirE2 trafficking. A. tumefaciens EHA105virE2::GFP11 cells were infiltrated into transgenic N. benthamiana (Nb308A) leaves expressing both GFP1-10 and DsRed. The leaves were infiltrated with 100 μM ML-7 or 1% DMSO as control 4 h before imaging. […] Red, free DsRed; Green, VirE2-GFPcomp. The movement tracking of 20 individual VirE2 aggregates plotted to a common origin is shown below the figure. Scale bar represents 20 μm. (b) Mean velocity of the VirE2 aggregates after ML-7 treatment. (c) Effects of myosin-tail overexpression on VirE2 trafficking. A. tumefaciens EHA105virE2::GFP11 cells harboring a binary plasmid which encodes a tail fragment of respective myosins downstream of 35S promoter were infiltrated into transgenic N. benthamiana (Nb308A) leaves expressing both GFP1-10 and DsRed. […] Red, free DsRed; Green, VirE2-GFPcomp. The movement tracking of 20 individual VirE2 aggregates plotted to a common origin is shown below the figure. Scale bar represents 20 μm. (d) Mean velocity of VirE2 aggregate movement under overexpression of myosin tails. EV, empty vector control. (e) Western analysis of crude extracts from leaf samples agroinfiltrated with myosin-tail constructs. EV, empty vector control. Myosin tails were HA tagged. GFP1-10 was detected to assess the amount of sample loaded, as shown in the lower panel. […]\nFIG. 11 illustrated an effect of a drug on VirE2 movement. A. tumefaciens EHA105virE2::GFP11 cell was injected and infiltrated into a transgenic tobacco line Nb308A constantly expressing a GFP1-10 and a DsRed. […]"}, "[2]": {"tested_on": "Arabidopsis root transformation", "assay": "Root tumorigenesis assay (Arabidopsis root transformation with tumor inducing strain A348)", "assay_type": "cell-based, A. thaliana", "conditions": "10 μM ML-7 in co-cultivation mixture, FIG. 9", "method": "Arabidopsis thaliana seeds were surface-sterilized with 0.5% NaClO solution and placed onto solidified ½×MS medium supplemented with 1% sucrose and 0.5 g L^−1 MES, pH 5.8. The plates were then incubated under a 16 hour photoperiod at 25° C. for 10 to 12 days. Roots from individual seedlings were cut into 3-5 mm segments and re-suspended in 1 ml fresh ½×MS medium containing A. tumefaciens cells at a concentration of 5×10^8 cell/ml unless specified otherwise. The mixtures were spread onto a solidified ½×MS plate and subsequently incubated at 25° C. for 2 days. The root segments were aligned onto ½×MS medium plates containing […] cefotaxime and kept at 25° C. for 4 weeks before photographing.\n(§1) FIG. 9 illustrated effects of ML-7 treatment on root tumorigenesis assay. Root segments from 10-day old wild type A. thaliana seedlings were infected with a tumor inducing Agrobacterium stain A348. Tumors were photographed three weeks later. (a) Tumors formed with or without ML-7 treatment. ML-7 was added (10 μM) into the col-cultivation mixture and then washed off when the root segments were transferred onto new plates for tumor formation. (b) Tumorigenesis efficiency as determined by percentage of root segments with tumors. (c) Effect of ML-7 on root segment viability. (d) Effect of ML-7 on Agrobacterium viability"}, "root segments": {"tested_on": "root segments", "assay": "Effect of ML-7 on root segment viability", "assay_type": "cell-based, A. thaliana", "conditions": "10 μM ML-7 for 2 days, in the presence of hormones (auxin and cytokinin); FIG. 9c", "method": "(§2) The inventor wants to determine if the VirE2 movement observed during our studies is directly relevant to Agrobacterium-mediated transformation. The present invention tested the effect of a selective myosin light chain kinase inhibitor ML-7 on Arabidopsis root transformation. Root segments were inoculated with a tumor inducing strain A348 in the presence of 10 μM ML-7. […] The present invention tested the toxicity of ML-7 on either the root or Agrobacterium growth at 10 μM ML-7. The root segments were exposed to 10 μM of ML-7 for 2 days, which was the time span for the bacterium-Arabidopsis co-cultivation.\nas §1"}, "Agrobacterium": {"tested_on": "Agrobacterium", "assay": "Effect of ML-7 on Agrobacterium viability", "assay_type": "cell-based, A. tumefaciens", "conditions": "10 μM ML-7", "method": "as §2, §1"}, "ER": {"tested_on": "ER", "assay": "Effects of chemicals on cellular structures: ER marker ER-mCherry", "assay_type": "cell-based, N. benthamiana", "conditions": "100 μg/mL BFA at 6 h before imaging; tobacco leaves", "method": "(§3) FIG. 5 illustrated effects of chemicals on respective cellular structures. Wild type N. benthamiana leaves were agroinfiltrated with binary plasmids encoding different fluorescent markers. The epidermal cells were examined at 2 d post agroinfiltration under confocal microscope with Olympus UPLSAPO 60×N.A. 1.20 water immersion objective. Upper panels a-c: leaf samples expressing subcellular markers. Lower panels d-f: leaf samples expressing subcellular markers were treated with chemicals. (a) RFP-MBD. MBD, Microtubule Binding Domain. (b) ER-mCherry. (c) tdTomato-ABD2. ABD, Actin Binding Domain. (d) RFP-MBD. Leaf samples were treated with 500 μM colchicine at 6 h before imaging. (e) ER-mCherry. Leaf samples were treated with 100 μg/mL BFA at 6 h before imaging. (f) tdTomato-ABD. Leaf samples were treated with 20 μM cytochalasin D at 6 h before imaging. Scale bar represents 20 μm."}, "microtubule": {"tested_on": "microtubule", "assay": "Effects of chemicals on cellular structures: microtubule marker RFP-MBD", "assay_type": "cell-based, N. benthamiana", "conditions": "500 μM colchicine at 6 h before imaging; tobacco leaves", "method": "as §3"}, "actin structures": {"tested_on": "actin structures", "assay": "Effects of chemicals on cellular structures: actin marker tdTomato-ABD2", "assay_type": "cell-based, N. benthamiana", "conditions": "20 μM cytochalasin D at 6 h before imaging; tobacco leaves", "method": "as §3"}, "[3]": {"conditions": "colchicine 500 μM, cytochalasin D 20 μM, brefeldin A 100 μg/mL"}}, "note": "“Also recorded” adds a separate entry of the source."}
{"smiles": "Clc1ccc(COC(Cn2ccnc2)c2ccc(Cl)cc2Cl)cc1", "note": "(centres unmarked) [Econazole]", "values": [{"measurement": "effect on real-time movement process of protein VirE2-GFP", "setting": "[1]", "result": "significantly affects"}, {"measurement": "toxicity as judged from VirE2-GFP movement", "setting": "[1]", "result": "highly toxic"}]}
{"smiles": "CC(=O)N1CCN(c2ccc(OCC3COC(Cn4ccnc4)(c4ccc(Cl)cc4Cl)O3)cc2)CC1", "note": "(centres unmarked) [Ketoconazole]", "values": [{"measurement": "effect on real-time movement process of protein VirE2-GFP", "setting": "[1]", "result": "does not affect"}, {"measurement": "toxicity as judged from VirE2-GFP movement", "setting": "[1]", "result": "less toxic"}]}
{"smiles": "O=S(=O)(c1cccc2c(I)cccc12)N1CCCNCC1", "note": "[ML-7]", "values": [{"measurement": "transformation efficiency (tumorigenesis)", "setting": "[2]", "result": "significantly reduced"}, {"measurement": "growth of root segments", "setting": "root segments", "result": "did not affect"}, {"measurement": "effect on VirE2 movement", "setting": "[1]; 100 μM ML-7 infiltrated 4 h before imaging, control 1% DMSO, FIG. 4", "result": "obviously stops"}, {"measurement": "decrease of average rate of the movement of the VirE2 compared with control group", "setting": "[1]; 100 μM ML-7 infiltrated 4 h before imaging, control 1% DMSO, FIG. 4b", "result": 95, "unit": "%"}, {"measurement": "Agrobacterium growth", "setting": "Agrobacterium", "result": "did not inhibit"}]}
{"smiles": "C[C@H]1CCC/C=C/[C@@H]2C[C@H](O)C[C@H]2[C@H](O)/C=C/C(=O)O1", "note": "[brefeldin A]", "values": [{"measurement": "effect on ER structure", "setting": "ER", "result": "disrupted"}, {"measurement": "effect on VirE2 trafficking", "setting": "[1]; [3]", "result": "severely affected"}]}
{"smiles": "COc1cc2c(c(OC)c1OC)-c1ccc(OC)c(=O)cc1[C@@H](NC(C)=O)CC2", "note": "[colchicine]", "values": [{"measurement": "effect on microtubule structure", "setting": "microtubule", "result": "disrupted"}, {"measurement": "average velocity of VirE2 movement, relative to the control", "setting": "[1]; colchicine 500 μM, cytochalasin D 20 μM, brefeldin A 100 μg/mL, 6 h before observation, over 20 events per treatment, FIG. 1c", "result": "over 60%"}, {"measurement": "effect on VirE2 trafficking", "setting": "[1]; [3]", "result": "minor effect; also recorded: did not affect the VirE2 trafficking significantly"}]}
{"smiles": "C=C1[C@@H](C)[C@H]2[C@H](Cc3ccccc3)NC(=O)[C@]23[C@H](OC(C)=O)/C=C/[C@@](C)(O)C(=O)[C@@H](C)C/C=C/[C@H]3[C@@H]1O", "note": "[cytochalasin D]", "values": [{"measurement": "effect on VirE2 trafficking", "setting": "[1]; [3]", "result": "severely affected"}, {"measurement": "effect on VirE2 trafficking", "setting": "[1]; colchicine 500 μM, cytochalasin D 20 μM, brefeldin A 100 μg/mL, listed as CytoD", "result": "stop the VirE2 movement"}, {"measurement": "effect on actin structure", "setting": "actin structures", "result": "disrupted"}]}
